Results from PMC8577999 (Slas Discovery, 2021).

What was measured:
Format in all cases: cell-based, SARS-CoV-2
[1] = system: SARS2-S D614G; settings: read-out: D614G IC50
[2] = system: SARS2-S UK variant (B.1.1.7); assay: microbe, parasite or virus in culture; settings: Severe acute respiratory syndrome coronavirus 2, read-out: UK IC50
[3] = system: SARS2-S SA variant (B.1.351); assay: microbe, parasite or virus in culture; settings: Severe acute respiratory syndrome coronavirus 2, read-out: SA IC50
[4] = system: SARS2-S N501Y-D614G; settings: read-out: N501Y-D614G IC50

## CCCC[C@@H](C=O)NC(=O)[C@H](CC(C)C)NC(=O)OCc1ccccc1 [SR-914, calpeptin]
[1]
  IC50: 11.5 nM
[2]
  IC50: 34.7 nM
[3]
  IC50: 6.58 nM
[4]
  IC50: 8.98 nM
